Results taken from paper PMC12251549, “Engineering a Radiohybrid PSMA Ligand with an Albumin-Binding Moiety and Pharmacokinetic Modulation via an Albumin-Binding Competitor for Radiotheranostics” (Molecules, 2025).

Experiments:
[1] = system: PSMA-expressing LNCaP cells; test: Cellular uptake and internalization in LNCaP cells, blocking with 2-PMPA; assay type: cell-based; details: 2-PMPA 100 µM
Method: Cellular uptake experiments were performed according to a previous report with slight modifications. LNCaP cells expressing PSMA were cultured in RPMI 1640 medium containing 10% fetal bovine serum (FBS) and 1% penicillin–streptomycin on 6-well culture plates (containing 5 × 10^5 cells/well) for 24 h in a humidified atmosphere (5% CO2) incubator at 37 °C. After removing the medium and washing with phosphate-buffered saline (PBS) (−) once, a mixed solution of [^125I]5 and [^211At]6, [^125I]5 and [^67Ga]Ga-PSMA-617, and [^125I]5 and [^67Ga]5 in 1.0 mL of medium without FBS was added (3.7 kBq/each tracer/well). The final concentrations of the radioligands for [^125I]5, [^211At]6, and [^67Ga]5 were 45.5 pM, 0.2 pM, and 2.5 pM, respectively. These solutions containing radioligands were diluted in saline containing 0.05% (w/v) bovine serum albumin (BSA) to prevent adsorption to tubes or plates and further diluted with medium to 0.00125% as the final BSA concentration. After incubation for 10, 60, and 120 min, the medium from each well was removed, and the cells were washed twice with ice-cold PBS (−); the surface of the cells was washed twice with ice-cold 0.2 M glycine buffer (pH 3.0). The cells were lysed using a 1 M NaOH aqueous solution. The radioactivity of ^67Ga,^125I and ^211At in the 1 M NaOH aqueous solution was determined and defined as the internalized radioligand fraction using an auto well gamma counter (ARC-8001, Hitachi, Ltd., Tokyo, Japan) according to a previous paper. The radioactivity was determined with an auto well gamma counter and corrected for background radiation and physical decay during counting. A window from 16 to 69 keV was used for counting ^125I, and a window from 70 to 120 keV was used for counting ^211At. Correlation factors to eliminate any crossover of ^125I activity in the ^211At counts were determined by measuring the ^125I standard in each window. More than one week after the experiments, the radioactivity counts of ^125I were measured after the decay of ^211At. The protein amount in cells was quantified using a BCA Protein Assay Kit (Nacalai Tesque, Kyoto, Japan) according to the manufacturer’s protocol. All data were expressed as percent dose per milligram protein (%dose/mg protein). In blocking experiments, a selective inhibitor of the PSMA, (2S)-2-(phosphonomethyl)pentanedioic acid (2-PMPA) (final concentration 100 µM), was added to each well with tracers. After incubation for 10, 60, and 120 min, radioactivity and protein concentration were determined in the same manner as the experiment without the blocking agent.

[2] = Biodistribution after intravenous co-injection of [125I]5 and [67Ga]Ga-PSMA-617 (Table S1); assay type: in vivo, normal mice (ddY); details: normal mice; for Biodistribution of radioactivity: Blood / Biodistribution of radioactivity: Bone / Biodistribution of radioactivity: Brain / Biodistribution of radioactivity: Heart / Biodistribution of radioactivity: Kidney / Biodistribution of radioactivity: L. Intestine / Biodistribution of radioactivity: Liver / Biodistribution of radioactivity: Lung / Biodistribution of radioactivity: Muscle / Biodistribution of radioactivity: Neck / Biodistribution of radioactivity: Pancreas / Biodistribution of radioactivity: S. Intestine / Biodistribution of radioactivity: Spleen / Biodistribution of radioactivity: Stomach: i.v.
Method: [^67Ga]Ga-PSMA-617 (37 kBq) and [^125I]5 (37 kBq) or [^125I]5 (37 kBq) and [^211At]6 (37 kBq) were intravenously co-administered into three or four normal mice at each timepoint (6 weeks male ddY mice, 28–30 g, Japan SLC, Inc., Hamamatsu, Japan). Mice were sacrificed at 10 min, 1 h, 4 h, and 24 h ([^67Ga]Ga-PSMA-617 and [^125I]5) or at 10 min, 1 h, 4 h, 12 h, and 24 h ([^125I]5 and [^211At]6) postinjection of the radiolabeled compounds. Tissues of interest were removed and weighed, and the radioactivity of ^67Ga and ^125I and ^125I and ^211At were determined with an auto well gamma counter (ARC-8001) and corrected for background radiation as described in the Cellular Uptake Experiments Section. To determine the amount and routes of the radioactivity excreted from the body for 24 h after the injection of radiolabeled compounds, mice were housed in metabolic cages (METABOLICA, SUGIYAMA-GEN Co., Ltd., Tokyo, Japan). Data are shown as the percentage of injected dose per gram of tissues (%ID/g) or %ID.

- Excretion in feces ([2]; 24 h postinjection): 2.3 ± 0.3 %ID
- Excretion in urine ([2]; 24 h postinjection): 10.3 ± 0.7 %ID
- Blood retention ([2]; compared with [67Ga]Ga-PSMA-617): significantly prolonged blood retention
- Biodistribution of radioactivity: Blood ([2]; 10 min after injection): 26.76 (0.56) % injected dose per gram
- Biodistribution of radioactivity: Bone ([2]; 10 min after injection): 2.56 (0.45) % injected dose per gram
- Biodistribution of radioactivity: Brain ([2]; 10 min after injection): 0.66 (0.14) % injected dose per gram
- Biodistribution of radioactivity: Heart ([2]; 10 min after injection): 4.87 (0.63) % injected dose per gram
- Biodistribution of radioactivity: Kidney ([2]; 10 min after injection): 10.29 (0.97) % injected dose per gram
- Biodistribution of radioactivity: L. Intestine ([2]; 10 min after injection): 1.10 (0.07) % injected dose per gram
- Biodistribution of radioactivity: Liver ([2]; 10 min after injection): 3.89 (0.34) % injected dose per gram
- Biodistribution of radioactivity: Lung ([2]; 10 min after injection): 10.56 (0.97) % injected dose per gram
- Biodistribution of radioactivity: Muscle ([2]; 10 min after injection): 0.89 (0.02) % injected dose per gram
- Biodistribution of radioactivity: Neck ([2]; 10 min after injection): 0.04 (0.01) % injected dose
- Biodistribution of radioactivity: Pancreas ([2]; 10 min after injection): 3.05 (0.20) % injected dose per gram
- Biodistribution of radioactivity: S. Intestine ([2]; 10 min after injection): 2.11 (0.10) % injected dose per gram
- Biodistribution of radioactivity: Spleen ([2]; 10 min after injection): 3.22 (0.38) % injected dose per gram
- Biodistribution of radioactivity: Stomach ([2]; 10 min after injection): 0.78 (0.10) % injected dose
- Biodistribution of radioactivity: Blood ([2]; 1 h after injection): 16.99 (1.80) % injected dose per gram
- Biodistribution of radioactivity: Bone ([2]; 1 h after injection): 2.18 (0.26) % injected dose per gram
- Biodistribution of radioactivity: Brain ([2]; 1 h after injection): 0.44 (0.19) % injected dose per gram
- Biodistribution of radioactivity: Heart ([2]; 1 h after injection): 4.00 (0.35) % injected dose per gram
- Biodistribution of radioactivity: Kidney ([2]; 1 h after injection): 6.22 (0.27) % injected dose per gram
- Biodistribution of radioactivity: L. Intestine ([2]; 1 h after injection): 1.16 (0.18) % injected dose per gram
- Biodistribution of radioactivity: Liver ([2]; 1 h after injection): 2.67 (0.11) % injected dose per gram
- Biodistribution of radioactivity: Lung ([2]; 1 h after injection): 9.59 (2.25) % injected dose per gram
- Biodistribution of radioactivity: Muscle ([2]; 1 h after injection): 1.06 (0.06) % injected dose per gram
- Biodistribution of radioactivity: Neck ([2]; 1 h after injection): 0.03 (0.01) % injected dose
- Biodistribution of radioactivity: Pancreas ([2]; 1 h after injection): 2.30 (0.22) % injected dose per gram
- Biodistribution of radioactivity: S. Intestine ([2]; 1 h after injection): 2.02 (0.21) % injected dose per gram
- Biodistribution of radioactivity: Spleen ([2]; 1 h after injection): 2.01 (0.29) % injected dose per gram
- Biodistribution of radioactivity: Stomach ([2]; 1 h after injection): 0.75 (0.08) % injected dose
- Biodistribution of radioactivity: Blood ([2]; 4 h after injection): 14.52 (0.22) % injected dose per gram
- Biodistribution of radioactivity: Bone ([2]; 4 h after injection): 1.57 (0.64) % injected dose per gram
- Biodistribution of radioactivity: Brain ([2]; 4 h after injection): 0.30 (0.03) % injected dose per gram
- Biodistribution of radioactivity: Heart ([2]; 4 h after injection): 3.97 (0.22) % injected dose per gram
- Biodistribution of radioactivity: Kidney ([2]; 4 h after injection): 6.93 (0.24) % injected dose per gram
- Biodistribution of radioactivity: L. Intestine ([2]; 4 h after injection): 2.03 (0.07) % injected dose per gram
- Biodistribution of radioactivity: Liver ([2]; 4 h after injection): 2.76 (0.11) % injected dose per gram
- Biodistribution of radioactivity: Lung ([2]; 4 h after injection): 8.37 (0.62) % injected dose per gram
- Biodistribution of radioactivity: Muscle ([2]; 4 h after injection): 1.41 (0.07) % injected dose per gram
- Biodistribution of radioactivity: Neck ([2]; 4 h after injection): 0.03 (0.00) % injected dose
- Biodistribution of radioactivity: Pancreas ([2]; 4 h after injection): 2.33 (0.13) % injected dose per gram
- Biodistribution of radioactivity: S. Intestine ([2]; 4 h after injection): 1.99 (0.14) % injected dose per gram
- Biodistribution of radioactivity: Spleen ([2]; 4 h after injection): 1.59 (0.35) % injected dose per gram
- Biodistribution of radioactivity: Stomach ([2]; 4 h after injection): 0.69 (0.08) % injected dose
- Biodistribution of radioactivity: Blood ([2]; 24 h after injection): 9.84 (0.85) % injected dose per gram
- Biodistribution of radioactivity: Bone ([2]; 24 h after injection): 1.57 (0.22) % injected dose per gram
- Biodistribution of radioactivity: Brain ([2]; 24 h after injection): 0.30 (0.03) % injected dose per gram
- Biodistribution of radioactivity: Heart ([2]; 24 h after injection): 2.85 (0.36) % injected dose per gram
- Biodistribution of radioactivity: Kidney ([2]; 24 h after injection): 7.37 (0.99) % injected dose per gram
- Biodistribution of radioactivity: L. Intestine ([2]; 24 h after injection): 1.15 (0.35) % injected dose per gram
- Biodistribution of radioactivity: Liver ([2]; 24 h after injection): 1.59 (0.34) % injected dose per gram
- Biodistribution of radioactivity: Lung ([2]; 24 h after injection): 6.18 (0.83) % injected dose per gram
- Biodistribution of radioactivity: Muscle ([2]; 24 h after injection): 1.08 (0.11) % injected dose per gram
- Biodistribution of radioactivity: Neck ([2]; 24 h after injection): 0.02 (0.00) % injected dose
- Biodistribution of radioactivity: Pancreas ([2]; 24 h after injection): 1.66 (0.46) % injected dose per gram
- Biodistribution of radioactivity: S. Intestine ([2]; 24 h after injection): 1.11 (0.31) % injected dose per gram
- Biodistribution of radioactivity: Spleen ([2]; 24 h after injection): 1.62 (0.16) % injected dose per gram
- Biodistribution of radioactivity: Stomach ([2]; 24 h after injection): 0.67 (0.13) % injected dose
SMILES: O=C([O-])CN1CCN(CC(=O)[O-])CCN(CC(=O)NC(CCCCNC(=O)CCCc2ccc([125I])cc2)C(=O)NCC2CCC(C(=O)NC(Cc3ccc4ccccc4c3)C(=O)NCCCCC(NC(=O)NC(CCC(=O)O)C(=O)O)C(=O)O)CC2)CCN(CC(=O)[O-])CC1.[Ga+3] (stereo not drawn) [[^125I]5]
- Effect of excess 2-PMPA on cellular uptake [1]: significantly reduced
